For 39 compounds, EC50 and inhibition results are on record in ChEMBL document CHEMBL5634156, “A potent and selective cis-amide inhibitor of ryanodine receptor 2 as a candidate for cardiac arrhythmia treatment” (Eur J Med Chem, 2023).

In general, EC50 refers to the concentration needed to bring the measured effect to its halfway point.

Holding throughout (assay type): cell-based
One test addresses Ryanodine receptor 2 (Mus musculus, UniProt E9Q401). As to the kind of experiment: Inhibition of Full length wild type mouse RyR2 expressed in Flp-In-T-REx-293 cells assessed as increase in Ca2+ release endoplasmic reticulum by flex-station 3 fluorometer analysis.
Test [1] concerns the target Ryanodine receptor 2 (Mus musculus) (UniProt E9Q401). Kind of test: Inhibition of Full length wild type mouse RyR2 expressed in Flp-In-T-REx-293 cells assessed as caffeine-induced increase in Ca2+ release in endoplasmic reticulum at 0.0001 to 100 uM by flex-station 3 fluorometer analysis. The following applies: dose 0.0001-100 µM.
The test system of test [2] is Cardiomyocyte. As to the kind of experiment: Inhibition of RyR2 R420W mutant in mouse Cardiomyocyte assessed as 0.5 Hz field-pulse stimulated suppression of abnormal Ca2+ waves incubated for 3 mins by ROI analysis.
In test [3] the target is Ryanodine receptor 2 (Mus musculus) (UniProt E9Q401). Kind of test: Inhibition of Full length wild type mouse RyR2 expressed in Flp-In-T-REx-293 cells assessed as increase in Ca2+ release in endoplasmic reticulum at 30 uM by flex-station 3 fluorometer analysis.
The test system of test [4] is Cardiomyocyte. As to the kind of experiment: Inhibition of RyR2 R420W mutant in mouse Cardiomyocyte assessed as 0.5 Hz field-pulse stimulated suppression of abnormal Ca2+ waves at 30 to 100 nM incubated for 15 seconds by ROI analysis. The following applies: dose 30-100 nM, time 15.0 sec.
For test [5], the target named is Ryanodine receptor 1 (Homo sapiens) (UniProt P21817). Kind of test: Inhibition of RyR1 (unknown origin) expressed in HEK293 cells assessed as caffeine-induced increase in Ca2+ release at 100 uM by flex-station 3 fluorometer analysis.
The test system of test [6] is HEK293. Kind of test: Inhibition of RyR3 R2163C mutant (unknown origin) expressed in HEK293 cells assessed as caffeine-induced increase in Ca2+ release at 100 uM. The following applies: Homo sapiens.
Test [7] concerns HEK293. Kind of test: Inhibition of RyR1 R2163C mutant (unknown origin) expressed in HEK293 cells. The following applies: Homo sapiens.
Test [8] deals with Ryanodine receptor 2 (Mus musculus) (UniProt E9Q401). As to the kind of experiment: Inhibition of Full length mouse RyR2 expressed in human Flp-In-T-REx-293 cells.

Activity calls are given as the source filed them. No cut-off for these calls is given here.

Sequence of Ryanodine receptor 2 (E9Q401 whole entry): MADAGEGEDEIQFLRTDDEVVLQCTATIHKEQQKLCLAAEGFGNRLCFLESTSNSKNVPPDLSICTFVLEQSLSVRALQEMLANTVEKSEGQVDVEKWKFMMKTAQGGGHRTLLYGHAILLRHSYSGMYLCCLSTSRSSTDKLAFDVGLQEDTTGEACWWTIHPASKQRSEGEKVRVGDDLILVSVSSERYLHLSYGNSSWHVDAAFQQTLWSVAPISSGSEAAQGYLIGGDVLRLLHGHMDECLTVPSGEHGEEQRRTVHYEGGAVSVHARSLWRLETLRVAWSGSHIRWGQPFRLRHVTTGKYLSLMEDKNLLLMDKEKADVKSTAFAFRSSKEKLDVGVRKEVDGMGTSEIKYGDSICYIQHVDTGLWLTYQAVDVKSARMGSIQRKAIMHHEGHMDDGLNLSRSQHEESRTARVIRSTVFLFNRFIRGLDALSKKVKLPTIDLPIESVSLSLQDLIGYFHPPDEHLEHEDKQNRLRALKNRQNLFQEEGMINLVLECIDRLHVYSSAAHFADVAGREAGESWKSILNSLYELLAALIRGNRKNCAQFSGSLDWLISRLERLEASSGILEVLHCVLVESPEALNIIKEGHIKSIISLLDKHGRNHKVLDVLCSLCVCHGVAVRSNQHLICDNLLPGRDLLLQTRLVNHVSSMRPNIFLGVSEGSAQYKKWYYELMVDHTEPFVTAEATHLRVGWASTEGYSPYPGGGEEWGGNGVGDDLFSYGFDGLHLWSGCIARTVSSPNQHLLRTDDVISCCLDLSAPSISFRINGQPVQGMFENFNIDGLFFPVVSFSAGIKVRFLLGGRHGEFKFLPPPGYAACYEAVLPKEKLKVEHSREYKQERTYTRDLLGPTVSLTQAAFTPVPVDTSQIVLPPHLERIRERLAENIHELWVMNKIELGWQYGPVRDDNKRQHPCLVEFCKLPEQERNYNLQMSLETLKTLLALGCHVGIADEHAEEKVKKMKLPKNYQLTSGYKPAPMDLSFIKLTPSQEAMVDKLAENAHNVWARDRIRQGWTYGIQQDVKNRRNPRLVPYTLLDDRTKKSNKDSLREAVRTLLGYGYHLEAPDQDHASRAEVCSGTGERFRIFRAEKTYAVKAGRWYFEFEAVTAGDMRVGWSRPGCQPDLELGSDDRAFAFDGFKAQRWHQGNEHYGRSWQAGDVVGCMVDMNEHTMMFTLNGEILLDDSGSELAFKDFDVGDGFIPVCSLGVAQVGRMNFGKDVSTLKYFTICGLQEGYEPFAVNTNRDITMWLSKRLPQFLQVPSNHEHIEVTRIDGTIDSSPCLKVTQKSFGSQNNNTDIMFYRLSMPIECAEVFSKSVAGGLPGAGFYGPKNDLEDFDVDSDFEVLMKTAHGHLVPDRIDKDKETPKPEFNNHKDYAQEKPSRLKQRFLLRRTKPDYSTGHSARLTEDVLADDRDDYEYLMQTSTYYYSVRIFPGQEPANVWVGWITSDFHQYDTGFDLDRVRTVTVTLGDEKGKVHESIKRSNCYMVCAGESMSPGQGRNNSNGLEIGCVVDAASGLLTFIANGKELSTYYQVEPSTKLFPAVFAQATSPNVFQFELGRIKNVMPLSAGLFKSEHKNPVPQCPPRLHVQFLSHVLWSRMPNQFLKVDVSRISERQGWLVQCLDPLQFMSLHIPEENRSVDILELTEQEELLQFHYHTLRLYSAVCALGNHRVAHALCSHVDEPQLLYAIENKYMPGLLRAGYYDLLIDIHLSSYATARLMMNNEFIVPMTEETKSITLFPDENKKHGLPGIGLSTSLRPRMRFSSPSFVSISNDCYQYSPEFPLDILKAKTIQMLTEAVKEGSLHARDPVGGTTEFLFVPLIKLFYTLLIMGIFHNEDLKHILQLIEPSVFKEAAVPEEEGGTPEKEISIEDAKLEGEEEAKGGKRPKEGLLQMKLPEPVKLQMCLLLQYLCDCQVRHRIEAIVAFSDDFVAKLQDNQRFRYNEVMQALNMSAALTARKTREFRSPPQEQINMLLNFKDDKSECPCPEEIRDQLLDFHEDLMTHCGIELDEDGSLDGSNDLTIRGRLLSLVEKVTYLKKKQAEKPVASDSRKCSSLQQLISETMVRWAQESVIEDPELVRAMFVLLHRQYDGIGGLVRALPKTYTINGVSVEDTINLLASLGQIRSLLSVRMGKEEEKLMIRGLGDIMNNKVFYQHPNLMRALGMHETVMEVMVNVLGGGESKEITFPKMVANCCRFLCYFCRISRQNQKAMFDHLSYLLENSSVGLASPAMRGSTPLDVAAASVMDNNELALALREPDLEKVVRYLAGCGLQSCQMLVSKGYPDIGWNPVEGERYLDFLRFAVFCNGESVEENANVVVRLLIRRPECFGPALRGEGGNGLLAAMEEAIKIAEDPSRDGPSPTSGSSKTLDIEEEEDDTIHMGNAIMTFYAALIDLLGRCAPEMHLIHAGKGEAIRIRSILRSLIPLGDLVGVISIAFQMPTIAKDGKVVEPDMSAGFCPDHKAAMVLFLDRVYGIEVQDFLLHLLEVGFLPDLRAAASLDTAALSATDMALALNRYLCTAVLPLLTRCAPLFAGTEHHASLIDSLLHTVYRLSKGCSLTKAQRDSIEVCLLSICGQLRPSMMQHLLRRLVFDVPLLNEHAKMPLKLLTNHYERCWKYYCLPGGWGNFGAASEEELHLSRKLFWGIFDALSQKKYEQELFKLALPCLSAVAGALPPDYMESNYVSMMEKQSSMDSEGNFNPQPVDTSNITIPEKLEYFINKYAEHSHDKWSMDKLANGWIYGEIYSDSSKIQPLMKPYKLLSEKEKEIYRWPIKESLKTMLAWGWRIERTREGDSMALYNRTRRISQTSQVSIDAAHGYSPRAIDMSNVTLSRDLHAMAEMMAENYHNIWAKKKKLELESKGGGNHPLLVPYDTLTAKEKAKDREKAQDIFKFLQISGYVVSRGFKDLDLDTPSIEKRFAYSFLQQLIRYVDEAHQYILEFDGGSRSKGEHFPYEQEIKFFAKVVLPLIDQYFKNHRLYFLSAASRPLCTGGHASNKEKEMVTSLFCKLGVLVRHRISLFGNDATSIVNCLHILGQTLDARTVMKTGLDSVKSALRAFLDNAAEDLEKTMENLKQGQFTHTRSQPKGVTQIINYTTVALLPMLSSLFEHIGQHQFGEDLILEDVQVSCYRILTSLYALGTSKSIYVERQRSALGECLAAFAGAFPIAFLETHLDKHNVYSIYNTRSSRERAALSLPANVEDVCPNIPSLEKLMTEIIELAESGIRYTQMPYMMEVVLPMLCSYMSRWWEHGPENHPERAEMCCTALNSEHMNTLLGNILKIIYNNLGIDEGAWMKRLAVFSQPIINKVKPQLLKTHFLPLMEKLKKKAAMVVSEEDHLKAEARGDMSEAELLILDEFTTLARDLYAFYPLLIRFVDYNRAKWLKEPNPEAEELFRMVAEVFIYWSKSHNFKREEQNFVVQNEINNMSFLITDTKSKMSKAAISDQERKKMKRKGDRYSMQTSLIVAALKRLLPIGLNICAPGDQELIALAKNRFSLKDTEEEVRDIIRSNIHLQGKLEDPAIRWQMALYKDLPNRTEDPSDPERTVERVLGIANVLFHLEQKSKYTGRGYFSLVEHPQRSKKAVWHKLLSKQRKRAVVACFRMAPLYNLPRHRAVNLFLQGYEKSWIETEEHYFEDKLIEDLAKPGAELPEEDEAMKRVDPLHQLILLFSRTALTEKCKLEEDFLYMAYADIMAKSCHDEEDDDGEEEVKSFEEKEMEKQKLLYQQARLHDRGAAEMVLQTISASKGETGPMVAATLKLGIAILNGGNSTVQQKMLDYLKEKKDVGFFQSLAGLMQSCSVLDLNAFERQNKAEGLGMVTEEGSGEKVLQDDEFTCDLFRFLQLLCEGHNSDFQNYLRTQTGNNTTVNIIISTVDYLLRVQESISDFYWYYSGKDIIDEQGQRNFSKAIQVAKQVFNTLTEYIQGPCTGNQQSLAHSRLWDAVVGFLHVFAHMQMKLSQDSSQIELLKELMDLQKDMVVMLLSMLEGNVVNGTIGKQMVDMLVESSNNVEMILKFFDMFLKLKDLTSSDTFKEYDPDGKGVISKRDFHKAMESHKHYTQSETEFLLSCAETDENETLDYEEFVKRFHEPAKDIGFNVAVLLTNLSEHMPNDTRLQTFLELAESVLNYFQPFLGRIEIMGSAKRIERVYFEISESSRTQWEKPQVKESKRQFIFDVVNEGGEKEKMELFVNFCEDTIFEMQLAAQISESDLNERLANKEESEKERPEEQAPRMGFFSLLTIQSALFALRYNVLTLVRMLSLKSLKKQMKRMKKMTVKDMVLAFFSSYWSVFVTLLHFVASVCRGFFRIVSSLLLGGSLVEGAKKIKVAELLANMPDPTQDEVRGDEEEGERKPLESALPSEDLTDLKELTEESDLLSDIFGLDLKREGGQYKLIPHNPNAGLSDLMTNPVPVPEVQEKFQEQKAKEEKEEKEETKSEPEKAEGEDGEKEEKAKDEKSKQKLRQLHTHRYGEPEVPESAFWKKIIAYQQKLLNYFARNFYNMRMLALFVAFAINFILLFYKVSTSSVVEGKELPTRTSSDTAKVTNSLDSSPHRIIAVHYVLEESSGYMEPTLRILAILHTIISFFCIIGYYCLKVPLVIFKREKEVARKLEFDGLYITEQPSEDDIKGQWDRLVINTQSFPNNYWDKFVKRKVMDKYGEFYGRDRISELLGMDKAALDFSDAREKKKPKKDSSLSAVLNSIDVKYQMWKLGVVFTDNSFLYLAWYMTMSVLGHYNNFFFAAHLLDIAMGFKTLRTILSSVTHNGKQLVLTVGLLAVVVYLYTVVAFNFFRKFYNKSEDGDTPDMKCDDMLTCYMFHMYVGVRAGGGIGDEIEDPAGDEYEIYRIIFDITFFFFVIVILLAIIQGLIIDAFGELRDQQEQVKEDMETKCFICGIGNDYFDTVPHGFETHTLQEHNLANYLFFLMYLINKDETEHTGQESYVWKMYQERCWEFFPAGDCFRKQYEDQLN
Sequence of Ryanodine receptor 2 (Mus musculus) (E9Q401 whole entry): as above

As to `COc1ccc(-c2nnn(CC(=O)N(C)c3ccc(F)cc3)n2)cc1OC`, on Ryanodine receptor 2, the EC50 turned out to be 1140 nM.

`COc1cccc(-c2nnn(CC(=O)N(C)c3ccccc3)n2)c1`: the EC50 on Ryanodine receptor 2 came to 180 nM.

Take `CN(C(=O)Cn1nnc(-c2cc(F)cc(F)c2)n1)c1ccc(F)cc1`: the inhibition result (in [1]; in the test with Cardiomyocyte [2]; with Cardiomyocyte [4]) was “Active” throughout. Moreover, the EC50 on Ryanodine receptor 2 worked out at 13 nM. The inhibition result (in test [3]; in [5]; in the test on HEK293 [6]) was “inactive” each time.

`CN(C(=O)Cn1nnc(-c2ccccc2)n1)c1ccccc1`: at Ryanodine receptor 2, the EC50 is 696 nM.

For `COc1cccc(-c2nnn(CC(=O)N(C)c3ccc(OC)c(F)c3)n2)c1`, on Ryanodine receptor 2, the EC50 was 48 nM.

On to `CN(C(=O)Cn1nnc(-c2ccccc2)n1)c1ccccc1F`, for which the EC50 on Ryanodine receptor 2 stood at 859 nM.

Take `O=C(Cn1nnc(-c2cccc(F)c2)n1)N1CCc2ccccc21`: the EC50 on Ryanodine receptor 2 is more than 30000 nM.

On to `COc1ccccc1-c1nnn(CC(=O)Nc2ccccc2)n1`, for which the EC50 at Ryanodine receptor 2 was more than 30000 nM.

Regarding `COc1cccc(-c2nnn(CC(=O)Nc3ccc(F)cc3)n2)c1`, the EC50 at Ryanodine receptor 2 is more than 30000 nM.

In the case of `COc1cccc(-c2nnn(CC(=O)N(C)c3ccc(OC)c(OC)c3)n2)c1`, the EC50 on Ryanodine receptor 2 was more than 30000 nM.

Consider `CN(C(=O)Cn1nnc(-c2ccccc2)n1)c1cccc(F)c1`, for which, on Ryanodine receptor 2, the EC50 was 234 nM.

Consider `COc1cc(-c2nnn(CC(=O)N(C)c3ccc(F)cc3)n2)ccc1F`, for which the EC50 at Ryanodine receptor 2 is 59 nM.

Regarding `O=C(Cn1nnc(-c2cccc(F)c2)n1)Nc1ccccc1`, the EC50 at Ryanodine receptor 2 was more than 30000 nM.

As to `CN(C(=O)Cn1nnc(-c2ccc(F)cc2)n1)c1ccccc1`, the EC50 at Ryanodine receptor 2 stood at 220 nM.

`COc1ccc(-c2nnn(CC(=O)Nc3ccccc3)n2)cc1`: on Ryanodine receptor 2, the EC50 was more than 30000 nM.

On to `COc1cccc(-c2nnn(CC(=O)N3CCc4ccccc43)n2)c1`, for which the EC50 on Ryanodine receptor 2 is more than 30000 nM.

Consider `COc1ccc(-c2nnn(CC(=O)N(C)c3ccccc3)n2)cc1`, for which the EC50 at Ryanodine receptor 2 was 1230 nM.

For the compound `O=C(Cn1nnc(-c2ccccc2)n1)Nc1ccccc1`, the EC50 on Ryanodine receptor 2 was more than 30000 nM.

Consider `COc1ccccc1N(C)C(=O)Cn1nnc(-c2ccccc2)n1`, for which the EC50 at Ryanodine receptor 2 was more than 30000 nM.

As to `COc1cccc(-c2nnn(CC(=O)N(C)c3ccc(F)cc3)n2)c1`, the EC50 at Ryanodine receptor 2 is 23 nM.

As to `COc1cccc(-c2nnn(CC(=O)Nc3ccccc3)n2)c1`, at Ryanodine receptor 2, the concentration giving a half-maximal response (EC50) is more than 30000 nM.

Take `CN(C(=O)Cn1nnc(-c2cccc(F)c2)n1)c1ccccc1`: the EC50 on Ryanodine receptor 2 was found to be 96 nM.

`COc1ccc(N(C)C(=O)Cn2nnc(-c3cccc(OC)c3)n2)cc1`: at Ryanodine receptor 2, the EC50 came out at 26 nM.

Turning to `O=C(Cn1nnc(-c2cc(F)cc(F)c2)n1)Nc1ccc(F)cc1`, the half-maximal effective concentration (EC50) at Ryanodine receptor 2 was more than 30000 nM.

For `CN(C(=O)Cn1nnc(-c2ccccc2)n1)c1ccc(F)cc1`, the EC50 on Ryanodine receptor 2 amounted to 50 nM.

Consider `CCN(C(=O)Cn1nnc(-c2ccccc2)n1)c1ccccc1`, for which the EC50 at Ryanodine receptor 2 was 4080 nM. The inhibition entry in the test on HEK293 [7] is “inactive”. Moreover, in test [8], the inhibition entry is “Active”.

Take `CC(C)NCC(O)c1ccc(O)c(O)c1` (stereo not drawn): the inhibition entry with Cardiomyocyte [2] and in the test on Cardiomyocyte [4] was “inactive” throughout.

For `CN(C(=O)Cn1nnc(-c2cc(F)cc(F)c2)n1)c1ccccc1`, on Ryanodine receptor 2, the 50% effective concentration (EC50) is 22 nM.

`COc1cccc(N(C)C(=O)Cn2nnc(-c3ccccc3)n2)c1`: the EC50 at Ryanodine receptor 2 was found to be 25000 nM.

As for `COc1ccc(NC(=O)Cn2nnc(-c3ccccc3)n2)cc1`, the half-maximal effective concentration (EC50) at Ryanodine receptor 2 is more than 30000 nM.

With `COc1ccc(N(C)C(=O)Cn2nnc(-c3ccccc3)n2)cc1`, the EC50 on Ryanodine receptor 2 was found to be 136 nM.

On to `CN(C(=O)Cn1nnc(-c2ccccc2F)n1)c1ccccc1`, for which the EC50 on Ryanodine receptor 2 worked out at 460 nM.

On to `COc1ccc(N(C)C(=O)Cn2nnc(-c3cccc(F)c3)n2)cc1`, for which, at Ryanodine receptor 2, the half-maximal effective concentration (EC50) amounted to 28 nM.

On to `Nc1nc2ccc(OC(F)(F)F)cc2s1` [RILUZOLE], for which, at Ryanodine receptor 2, the EC50 was found to be 9900 nM.

Consider `CCCN(C(=O)Cn1nnc(-c2ccccc2)n1)c1ccccc1`, for which the EC50 at Ryanodine receptor 2 is 29400 nM.

Take `COC(=O)c1c(C)cc(O)cc1O` [METHYL ORSELLINATE]: on Ryanodine receptor 2, the half-maximal effective concentration (EC50) stood at 1100 nM.

Take `CN(C(=O)Cn1nnc(-c2cccc(F)c2)n1)c1ccc(F)cc1`: the EC50 at Ryanodine receptor 2 is 34 nM.

For the compound `O=C(Cn1nnc(-c2cccc(F)c2)n1)Nc1ccc(F)cc1`, on Ryanodine receptor 2, the EC50 is more than 30000 nM.

With `COc1ccccc1-c1nnn(CC(=O)N(C)c2ccccc2)n1`, the EC50 on Ryanodine receptor 2 turned out to be 2920 nM.
